Test results as given in PubChem BioAssay (NCI).
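Briefly, cells in 96-well plates were exposed to five compound concentrations for 48 h, and endpoints were estimated by linear interpolation. TGI denotes the concentration required for complete inhibition of growth.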

Legend:
Assay in all cases: inhibition of tumour cell growth, NCI panel, 48 h
[1] = test system: KM20L2 colon
[2] = test system: NCI-H522 lung
[3] = test system: HOP-62 NSCLC
[4] = test system: A549 NSCLC
[5] = test system: HT29 colon
[6] = test system: K-562 leukemia
[7] = test system: COLO 205 colon
[8] = test system: SF-539 CNS
[9] = test system: M19-MEL melanoma
[10] = test system: TK-10 renal
[11] = test system: HOP-92 NSCLC
[12] = test system: DMS 273 small cell lung
[13] = test system: KM12 colon
[14] = test system: MOLT-4 leukemia
[15] = test system: XF 498 CNS
[16] = test system: ACHN renal
[17] = test system: CCRF-CEM leukemia
[18] = test system: A498 renal
[19] = test system: SNB-78 CNS
[20] = test system: SR leukemia
[21] = test system: OVCAR-8 ovarian
[22] = test system: SNB-19 CNS
[23] = test system: NCI-H226 lung
[24] = test system: SK-MEL-2 melanoma
[25] = test system: EKVX NSCLC
[26] = test system: SF-268 CNS
[27] = test system: HCT-116 colon
[28] = test system: IGROV1 ovarian
[29] = test system: RXF 393 renal
[30] = test system: 786-0 renal
[31] = test system: CAKI-1 renal
[32] = test system: U251 CNS
[33] = test system: NCI-H23 lung
[34] = test system: MALME-3M melanoma
[35] = test system: NCI-H460 lung
[36] = test system: OVCAR-5 ovarian
[37] = test system: LOX IMVI melanoma
[38] = test system: SF-295 CNS
[39] = test system: UACC-257 melanoma
[40] = test system: SK-MEL-28 melanoma
[41] = test system: SW-620 colon
[42] = test system: LXFL 529 NSCLC
[43] = test system: HL-60(TB) leukemia
[44] = test system: HCC-2998 colon
[45] = test system: SN12C renal
[46] = test system: OVCAR-4 ovarian
[47] = test system: HOP-18 NSCLC
[48] = test system: SNB-75 CNS
[49] = test system: RXF-631 renal
[50] = test system: DMS 114 small cell lung
[51] = test system: UACC-62 melanoma
[52] = test system: HCT-15 colon
[53] = test system: SK-MEL-5 melanoma
[54] = test system: OVCAR-3 ovarian
[55] = test system: SK-OV-3 ovarian
[56] = test system: UO-31 renal
[57] = test system: M14 melanoma
[58] = test system: RPMI-8226 leukemia
[59] = test system: HS 578T breast
[60] = test system: MDA-MB-435
[61] = test system: MDA-N
[62] = test system: BT-549 breast
[63] = test system: T-47D breast
[64] = test system: MCF7 breast
[65] = test system: PC-3 prostate
[66] = test system: NCI/ADR-RES ovarian
[67] = test system: MDA-MB-231 breast
[68] = test system: DU-145 prostate

Measured: TGI

BrC1(Br)C2/C=C\CCCCC21 (stereo unspecified)
not listed: [48] | [49] | [50] | [51] | [52] | [53] | [54] | [55] | [56] | [57] | [58] | [59] | [60] | [61] | [62] | [63] | [64] | [65] | [66] | [67] | [68]
> 100 µM: all other assays above

Cc1nn(-c2ccccc2)c(-c2ccccc2[N+](=O)[O-])c1CC#N
not listed: [5] | [18] | [20] | [23] | [27] | [32] | [41] | [47] | [59] | [60] | [61] | [62] | [63] | [64] | [65] | [66] | [67] | [68]
> 100 µM: all other assays above

c1nnc(NCNc2nncs2)s1
83.6 µM: [35]
84.2 µM: [44]
not listed: [1] | [9] | [12] | [15] | [19] | [42] | [47] | [49] | [50]
> 100 µM: all other assays above
